Data set [1] has as its target T1, mGluR5 (Homo sapiens, UniProt P41594). Kind of data set: mGluR5 PAM EC50 (positive allosteric modulator potency). It counts as cell-based.
The target of data set [2] is T1, mGluR5. Kind of data set: mGluR5 fold shift at a fixed compound concentration. It is filed as cell-based.

pEC50: −log10 of the molar value.

Consider 40 molecules from patent US9708331B2, “Metabotrophic glutamate receptor 5 modulators and methods of use thereof” (SUNOVION PHARMACEUTICALS INC., priority 2011, dated 2017).

T1 sequence (P41594 21-1212): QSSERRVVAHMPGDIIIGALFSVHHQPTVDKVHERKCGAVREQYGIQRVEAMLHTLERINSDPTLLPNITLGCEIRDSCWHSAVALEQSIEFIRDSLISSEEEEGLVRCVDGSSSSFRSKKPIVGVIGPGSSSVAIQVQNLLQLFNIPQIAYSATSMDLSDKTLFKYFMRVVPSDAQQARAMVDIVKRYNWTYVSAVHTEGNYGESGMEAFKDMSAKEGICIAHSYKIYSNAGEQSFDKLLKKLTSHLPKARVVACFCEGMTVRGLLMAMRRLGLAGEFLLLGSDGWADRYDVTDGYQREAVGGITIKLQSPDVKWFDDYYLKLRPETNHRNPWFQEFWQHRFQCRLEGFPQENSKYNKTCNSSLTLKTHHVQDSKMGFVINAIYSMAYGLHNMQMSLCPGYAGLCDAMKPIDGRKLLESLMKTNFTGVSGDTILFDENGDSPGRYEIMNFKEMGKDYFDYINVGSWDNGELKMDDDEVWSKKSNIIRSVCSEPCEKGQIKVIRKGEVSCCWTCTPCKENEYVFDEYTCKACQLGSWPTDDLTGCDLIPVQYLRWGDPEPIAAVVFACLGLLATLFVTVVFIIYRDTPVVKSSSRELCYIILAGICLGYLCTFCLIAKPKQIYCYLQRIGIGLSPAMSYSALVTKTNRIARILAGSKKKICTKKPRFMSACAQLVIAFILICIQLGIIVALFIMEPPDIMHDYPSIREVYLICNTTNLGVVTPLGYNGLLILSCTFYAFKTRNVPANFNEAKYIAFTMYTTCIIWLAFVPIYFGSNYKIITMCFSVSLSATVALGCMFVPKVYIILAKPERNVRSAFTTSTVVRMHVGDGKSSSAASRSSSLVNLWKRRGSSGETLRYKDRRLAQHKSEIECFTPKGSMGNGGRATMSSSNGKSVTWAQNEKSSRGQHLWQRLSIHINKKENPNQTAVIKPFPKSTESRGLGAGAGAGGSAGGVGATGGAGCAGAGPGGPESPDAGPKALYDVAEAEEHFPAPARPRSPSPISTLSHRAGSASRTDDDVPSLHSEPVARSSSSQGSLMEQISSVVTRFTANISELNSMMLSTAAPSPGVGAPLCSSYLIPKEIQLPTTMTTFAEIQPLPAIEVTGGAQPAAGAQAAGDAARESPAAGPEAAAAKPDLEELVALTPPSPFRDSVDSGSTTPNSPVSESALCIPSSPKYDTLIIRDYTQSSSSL

As usually defined, the pEC50 is the negative decadic logarithm of the EC50, by convention in mol/L. The low end stands for a large EC50, the high end for a small EC50. At mGluR5 [1], `O=c1c2ccc(C#Cc3ccccn3)cc2nc2n1CC(C(F)(F)F)C2` (single isomer, unassigned) [Example 1.8a] had a pEC50 of 7.52 to 8.00. Moreover, on mGluR5 [2], the “Fold shift at 1 μM” value is recorded as “+++ (+++>3)”.

Regarding `O=c1c2ccc(C#Cc3ccccn3)cc2nc2n1CC(C(F)(F)F)C2` (single isomer, unassigned) [Example 1.8b], the pEC50 on mGluR5 [1] is 7.00 to 7.52. At mGluR5 [2], the “Fold shift at 1 μM” value was “+ (+ is between 1.5 and 1.9)”.

`CC1CCn2c(nc3cc(C#Cc4ccccn4)ccc3c2=O)C1` (single isomer, unassigned) [Example 2.1b]: at mGluR5 [2], the “Fold shift at 1 μM” value is “++ (++ is between 2.0 and 2.9)”.

Regarding `COC1(C)CCc2nc3cc(C#Cc4ccccn4)ccc3c(=O)n2C1` (single isomer, unassigned) [Example 2.8a], the pEC50 at mGluR5 [1] is 6.52 to 7.00. The “Fold shift at 10 μM” value at mGluR5 [2] was “++ (++ is between 2.0 and 2.9)”.

Turning to `COC1(C)CCc2nc3cc(C#Cc4ccccn4)ccc3c(=O)n2C1` (single isomer, unassigned) [Example 2.8b], the pEC50 at mGluR5 [1] is 7.00 to 7.52. The “Fold shift at 1 μM” value on mGluR5 [2] is on record as “+++ (+++>3)”.

Consider `O=c1c2ccc(C#Cc3ccccn3)cc2nc2n1C1CCC2C1` (single isomer, unassigned) [Example 2.9a], for which the pEC50 on mGluR5 [1] is 7.52 to 8.00. Moreover, the “Fold shift at 1 μM” value at mGluR5 [2] is “+ (+ is between 1.5 and 1.9)”.

Take `O=c1c2ccc(C#Cc3ccccn3)cc2nc2n1C1CCC2C1` (single isomer, unassigned) [Example 2.9b]: the “Fold shift at 1 μM” value at mGluR5 [2] is “++ (++ is between 2.0 and 2.9)”.

As for `O=c1c2ccc(C#Cc3ccccn3)cc2nc2n1CCC1CC21` (single isomer, unassigned) [Example 2.10a], on mGluR5 [1], the pEC50 was 7.00 to 7.52. Also, the “Fold shift at 1 μM” value at mGluR5 [2] is “++ (++ is between 2.0 and 2.9)”.

On to `CC1(C)CC(F)c2nc3cc(C#Cc4ccccn4)ccc3c(=O)n2C1` (single isomer, unassigned) [Example 2.12a], for which the pEC50 at mGluR5 [1] was greater than 8.00. Besides, the “Fold shift at 10 μM” value at mGluR5 [2] is reported as “+++ (+++>3)”.

With `CC1(C)CC(F)c2nc3cc(C#Cc4ccccn4)ccc3c(=O)n2C1` (single isomer, unassigned) [Example 2.12b], at mGluR5 [2], the “Fold shift at 10 μM” value is “+ (+ is between 1.5 and 1.9)”.

Turning to `COC1(C)CCc2nc3cc(C#Cc4ccccn4)ccc3c(=O)n2CC1` (single isomer, unassigned) [Example 3.4a], the pEC50 at mGluR5 [1] is 7.00 to 7.52. The “Fold shift at 10 μM” value on mGluR5 [2] is “+++ (+++>3)”.

For `COC1(C)CCc2nc3cc(C#Cc4ccccn4)ccc3c(=O)n2CC1` (single isomer, unassigned) [Example 3.4b], the “Fold shift at 10 μM” value on mGluR5 [2] is “++ (++ is between 2.0 and 2.9)”.

`CC1(F)CCc2nc3cc(C#Cc4ccccn4)cnc3c(=O)n2CC1` (single isomer, unassigned) [Example 3.10b]: the pEC50 on mGluR5 [1] was 7.00 to 7.52. Further, the “Fold shift at 1 μM” value at mGluR5 [2] was “+++ (+++>3)”.

Regarding `COC1CCc2nc3cc(C#Cc4ccccn4)ccc3c(=O)n2CC1` (single isomer, unassigned) [Example 3.11b], at mGluR5 [1], the pEC50 was 7.52 to 8.00. The “Fold shift at 1 μM” value at mGluR5 [2] is “++ (++ is between 2.0 and 2.9)”.

`CC1CCc2cc3cc(C#Cc4ccccn4)ccc3c(=O)n2CC1` (single isomer, unassigned) [Example 3.20a]: the pEC50 on mGluR5 [1] was greater than 8.00. Besides, the “Fold shift at 10 μM” value at mGluR5 [2] is recorded as “+++ (+++>3)”.

In the case of `CC1Cc2nc3cc(C#Cc4ccccn4)ccc3c(=O)n2CCC1(F)F` (single isomer, unassigned) [Example 3.30c], the pEC50 at mGluR5 [1] was 7.52 to 8.00. At mGluR5 [2], the “Fold shift at 10 μM” value is on record as “+++ (+++>3)”.

Regarding `CC1Cc2nc3cc(C#Cc4ccccn4)ccc3c(=O)n2CCC1(F)F` (single isomer, unassigned) [Example 3.30d], the “Fold shift at 10 μM” value on mGluR5 [2] was “+ (+ is between 1.5 and 1.9)”.

At mGluR5 [1], `CC1Cn2c(nc3cc(C#Cc4ccccn4)ccc3c2=O)CCC1(F)F` (single isomer, unassigned) [Example 3.30f] gave a negative-log EC50 (pEC50) of 7.52 to 8.00. Moreover, at mGluR5 [2], the “Fold shift at 10 μM” value was “++ (++ is between 2.0 and 2.9)”.

On to `O=c1c2ccc(C#Cc3ccccn3)cc2nc2n1CC1(CCC2)COC1` [Example 3.38, 3-(pyridin-2-ylethynyl)-7,8-dihydro-6H-spiro[azepino[2,1-b]quinazoline-9,3′-oxetan]-12(10H)-one], for which the pEC50 at mGluR5 [1] was 7.52 to 8.00.

With `CC1(C)C=Cc2nc3cc(C#Cc4ccccn4)ccc3c(=O)n2CC1` [Example 3.42, 8,8-dimethyl-3-(pyridin-2-ylethynyl)-9,10-dihydroazepino[2,1-b]quinazolin-12(8H)-one], the pEC50 on mGluR5 [1] is 7.00 to 7.52.

Regarding `CC1(C)CCn2c(nc3cc(/C=C/c4cc(C#N)ccn4)ccc3c2=O)C1` [Example 4.1a, (E)-2-(2-(7,7-dimethyl-11-oxo-7,8,9,11-tetrahydro-6H-pyrido[2,1-b]quinazolin-3-yl)vinyl)isonicotinonitrile], the pEC50 on mGluR5 [1] was 6.00 to 6.52.

In the case of `CC1(C)CCc2nc3cc(/C=C/c4cc(C#N)ccn4)ccc3c(=O)n2C1` [Example 4.1b, (E)-2-(2-(8,8-dimethyl-11-oxo-7,8,9,11-tetrahydro-6H-pyrido[2,1-b]quinazolin-3-yl)vinyl)isonicotinonitrile], at mGluR5 [1], the negative logarithm of the EC50 (pEC50) is 6.00 to 6.52.

At mGluR5 [1], `Cc1csc(/C=C/c2ccc3c(=O)n4c(nc3c2)CCC(C)(C)C4)n1` [Example 4.3, (E)-8,8-dimethyl-3-(2-(4-methylthiazol-2-yl)vinyl)-8,9-dihydro-6H-pyrido[2,1-b]quinazolin-11(7H)-one] had a pEC50 of 7.52 to 8.00.

With `CC1(C)CCc2nc3cc(OCc4ccccn4)ccc3c(=O)n2C1` [Example 4.5, 8,8-dimethyl-3-(pyridin-2-ylmethoxy)-8,9-dihydro-6H-pyrido[2,1-b]quinazolin-11(7H)-one], the pEC50 at mGluR5 [1] was 7.00 to 7.52.

For the molecule `CC1(C)CCc2nc3cc(NC(=O)c4ccccn4)ccc3c(=O)n2C1` [Example 4.7, N-(8,8-dimethyl-11-oxo-7,8,9,11-tetrahydro-6H-pyrido[2,1-b]quinazolin-3-yl)picolinamide], on mGluR5 [1], the pEC50 is 6.52 to 7.00.

For the molecule `CC1(C)CCc2nc3cc(C(=O)Nc4ccccn4)ccc3c(=O)n2C1` [Example 4.8, 8,8-dimethyl-11-oxo-N-(pyridin-2-yl)-7,8,9,11-tetrahydro-6H-pyrido[2,1-b]quinazoline-3-carboxamide], the pEC50 at mGluR5 [1] was 6.52 to 7.00.

On to `CC1(C)Cc2nc3cc(C(=O)Nc4ccccn4)ccc3c(=O)n2C1` [Example 4.17, 2,2-dimethyl-9-oxo-N-(pyridin-2-yl)-1,2,3,9-tetrahydropyrrolo[2,1-b]quinazoline-6-carboxamide], for which the pEC50 at mGluR5 [1] was 6.00 to 6.52.

In the case of `CC1(C)Cc2nc3cc(NC(=O)c4ccccn4)ccc3c(=O)n2C1` [Example 4.18, N-(2,2-dimethyl-9-oxo-1,2,3,9-tetrahydropyrrolo[2,1-b]quinazolin-6-yl)picolinamide], the negative-log EC50 (pEC50) at mGluR5 [1] is 6.00 to 6.52.

`O=C(Nc1ccccn1)c1ccc2c(=O)n3c(nc2c1)CCC(F)(F)CC3` [Example 5.4, 8,8-difluoro-12-oxo-N-(pyridin-2-yl)-6,7,8,9,10,12-hexahydroazepino[2,1-b]quinazoline-3-carboxamide]: on mGluR5 [1], the pEC50 is 6.00 to 6.52.

For `CC1(C)CCc2nc3cc(Nc4ccccn4)ccc3c(=O)n2C1` [Example 6.2, 8,8-dimethyl-3-(pyridin-2-ylamino)-8,9-dihydro-6H-pyrido[2,1-b]quinazolin-11(7H)-one], on mGluR5 [1], the pEC50 is 6.00 to 6.52.

With `CC1(C)CCc2nc3cc(COc4ccccn4)ccc3c(=O)n2C1` [Example 6.4, 8,8-dimethyl-3-((pyridin-2-yloxy)methyl)-8,9-dihydro-6H-pyrido[2,1-b]quinazolin-11(7H)-one], the pEC50 on mGluR5 [1] was 6.52 to 7.00.

Regarding `C/C(=C\c1ccc2c(=O)n3c(nc2c1)CCC(C)(C)C3)c1ccccn1` [Example 6.5, (E)-8,8-dimethyl-3-(2-(pyridin-2-yl)prop-1-en-1-yl)-8,9-dihydro-6H-pyrido[2,1-b]quinazolin-11(7H)-one], the pEC50 at mGluR5 [1] is 6.52 to 7.00.

In turn, `CC1(C)CCc2nc3cc(C(=O)Cc4ccccn4)ccc3c(=O)n2C1` [Example 6.7, 8,8-dimethyl-3-(2-(pyridin-2-yl)acetyl)-8,9-dihydro-6H-pyrido[2,1-b]quinazolin-11(7H)-one] had a pEC50 at mGluR5 [1] of 7.00 to 7.52.

Turning to `CC1(C)CCc2nc3cc(NC(=O)Nc4ccccn4)ccc3c(=O)n2C1` [Example 6.12, 1-(8,8-dimethyl-11-oxo-7,8,9,11-tetrahydro-6H-pyrido[2,1-b]quinazolin-3-yl)-3-(pyridin-2-yl)urea], the pEC50 on mGluR5 [1] is 6.00 to 6.52.

For `CC1(C)CCc2nc3cc(-c4nc(-c5ccccn5)c[nH]4)ccc3c(=O)n2C1` [Example 6.21, 8,8-dimethyl-3-(4-(pyridin-2-yl)-1H-imidazol-2-yl)-8,9-dihydro-6H-pyrido[2,1-b]quinazolin-11(7H)-one], at mGluR5 [1], the negative-log EC50 (pEC50) was 6.00 to 6.52.

As to `CC1(C)CCc2nc3cc(-c4ncc(-c5ccccn5)o4)ccc3c(=O)n2C1` [Example 6.25, 8,8-dimethyl-3-(5-(pyridin-2-yl)oxazol-2-yl)-8,9-dihydro-6H-pyrido[2,1-b]quinazolin-11(7H)-one], the pEC50 on mGluR5 [1] was 6.52 to 7.00.

Molecule `CC1(C)CCc2nc3cc(-c4cnc(-c5ccccn5)s4)ccc3c(=O)n2C1` [Example 6.28, 8,8-dimethyl-3-(2-(pyridin-2-yl)thiazol-5-yl)-8,9-dihydro-6H-pyrido[2,1-b]quinazolin-11(7H)-one] gave a pEC50 at mGluR5 [1] of 6.00 to 6.52.

`CC1(C)CCc2nc3cc(-c4nnc(-c5ccccn5)o4)ccc3c(=O)n2C1` [Example 6.35, 8,8-dimethyl-3-(5-(pyridin-2-yl)-1,3,4-oxadiazol-2-yl)-8,9-dihydro-6H-pyrido[2,1-b]quinazolin-11(7H)-one] showed a pEC50 at mGluR5 [1] of 6.52 to 7.00.

As to `CC1(C)CCc2nc3cc(-c4nnc(-c5ccccn5)s4)ccc3c(=O)n2C1` [Example 6.38, 8,8-dimethyl-3-(5-(pyridin-2-yl)-1,3,4-thiadiazol-2-yl)-8,9-dihydro-6H-pyrido[2,1-b]quinazolin-11(7H)-one], the pEC50 on mGluR5 [1] was 6.52 to 7.00.

Regarding `CC1(C)CCc2nc3cc(-c4ncc(-c5ccccn5)cn4)ccc3c(=O)n2C1` [Example 6.42, 8,8-dimethyl-3-(5-(pyridin-2-yl)pyrimidin-2-yl)-8,9-dihydro-6H-pyrido[2,1-b]quinazolin-11(7H)-one], the pEC50 on mGluR5 [1] is 6.00 to 6.52.
